# Measured values published in patent publication US9504675B2, “Alpha-ketoheterocycles and methods of making and using” (The Scripps Research Institute, priority 2011, dated 2016).
# “Also recorded” adds a separate entry of the source.
# Assays:
# [1] = Human liver microsome stability (hlm t1/2); assay type: in vitro ADME; details: human liver microsomes
# [2] = Rat liver microsome stability (rlm t1/2); assay type: in vitro ADME; details: rat liver microsomes
# human FAAH (hFAAH) = target: T1, human FAAH (hFAAH) (Homo sapiens, UniProt O00519); experiment: Enzyme assay: inhibition of human FAAH (lysate of hFAAH-transfected COS-7 cells), 14C-oleamide hydrolysis; assay type: biochemical; details: for Ki: Table 5, active (S)-enantiomers; for reduction in activity against the human enzyme versus rat FAAH: hFAAH vs rFAAH, active (S)-enantiomers
# T1 construct: The full-length human FAAH (hFAAH) was expressed in COS-7 cells; expressed in transfected cells; host or cells: COS-7 (transiently transfected with human FAAH cDNA)
# T1 sequence (O00519 1-579): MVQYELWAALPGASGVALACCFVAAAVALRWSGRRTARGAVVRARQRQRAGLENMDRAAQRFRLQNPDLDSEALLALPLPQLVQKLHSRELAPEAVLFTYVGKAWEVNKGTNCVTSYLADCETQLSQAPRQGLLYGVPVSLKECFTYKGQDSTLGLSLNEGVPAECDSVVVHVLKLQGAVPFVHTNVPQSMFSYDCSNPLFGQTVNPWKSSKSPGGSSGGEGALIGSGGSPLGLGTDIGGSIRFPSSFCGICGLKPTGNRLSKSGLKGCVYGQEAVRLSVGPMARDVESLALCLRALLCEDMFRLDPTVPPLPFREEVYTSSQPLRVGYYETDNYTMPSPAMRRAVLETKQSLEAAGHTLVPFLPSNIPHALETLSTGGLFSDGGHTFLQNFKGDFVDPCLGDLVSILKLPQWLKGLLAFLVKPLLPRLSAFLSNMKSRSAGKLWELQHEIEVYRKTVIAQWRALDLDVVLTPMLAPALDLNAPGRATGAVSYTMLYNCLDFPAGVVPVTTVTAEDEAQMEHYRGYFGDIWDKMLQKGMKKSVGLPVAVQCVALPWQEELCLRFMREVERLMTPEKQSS
# Procedure: Enzyme assays were performed at 20-23° C. with purified recombinant rat FAAH expressed in Escherichia coli or with solubilized COS-7 membrane extracts from cells transiently transfected with human FAAH cDNA (where specifically indicated) in a buffer of 125 mM Tris/1 mM EDTA/0.2% glycerol/0.02% Triton X-100/0.4 mM Hepes, pH 9.0.
# ^14C-labeled oleamide was prepared from ^14C-labeled oleic acid. The truncated rat FAAH (rFAAH) was expressed in E. coli and purified. The purified recombinant rFAAH was used in the inhibition assays unless otherwise indicated. The full-length human FAAH (hFAAH) was expressed in COS-7 cells as described, and the lysate of hFAAH-transfected COS-7 cells was used in the inhibition assays where explicitly indicated.
# The inhibition assays were performed as follows. […] The enzyme reaction was terminated by transferring 20 μL of the reaction mixture to 500 μL of 0.1 N HCl at three different time points. The ^14C-labeled oleamide (substrate) and oleic acid (product) were extracted with EtOAc and analyzed by TLC as detailed. The Ki of the inhibitor was calculated using a Dixon plot as described (standard deviations are provided in the Supporting Information tables).
# [3] = target: T2, recombinant rat FAAH (rFAAH) (Rattus norvegicus, UniProt P97612); experiment: Enzyme assay: inhibition of purified recombinant rat FAAH, 14C-oleamide hydrolysis, Ki by Dixon plot; assay type: biochemical; details: for Ki: rFAAH, Table 5, active (S)-enantiomers
# T2 construct: The truncated rat FAAH (rFAAH) was expressed in E. coli and purified; made in house; host or cells: Escherichia coli
# T2 sequence (P97612 30-579 limits assumed): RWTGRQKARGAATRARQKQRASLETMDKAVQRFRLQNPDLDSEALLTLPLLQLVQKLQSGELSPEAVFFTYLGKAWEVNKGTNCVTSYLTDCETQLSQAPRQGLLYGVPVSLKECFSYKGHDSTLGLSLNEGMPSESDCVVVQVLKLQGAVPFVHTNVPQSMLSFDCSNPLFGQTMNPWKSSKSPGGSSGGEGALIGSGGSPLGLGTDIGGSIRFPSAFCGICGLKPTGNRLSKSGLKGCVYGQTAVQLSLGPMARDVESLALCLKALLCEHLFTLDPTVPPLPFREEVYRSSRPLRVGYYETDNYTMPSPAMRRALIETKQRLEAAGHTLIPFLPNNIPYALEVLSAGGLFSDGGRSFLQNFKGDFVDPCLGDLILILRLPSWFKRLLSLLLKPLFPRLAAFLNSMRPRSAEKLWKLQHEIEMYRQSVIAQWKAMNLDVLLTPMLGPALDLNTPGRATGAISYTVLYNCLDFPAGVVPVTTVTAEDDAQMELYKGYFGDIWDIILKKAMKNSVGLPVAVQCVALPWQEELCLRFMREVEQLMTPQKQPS
# In short: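 Hydrolysis of 14C-oleamide at 20-23° C by purified truncated rat FAAH expressed in E. coli or by lysate of COS-7 cells transfected with full-length human FAAH, in 125 mM Tris/1 mM EDTA/0.2% glycerol/0.02% Triton X-100/0.4 mM Hepes, pH 9.0. Reaction stopped in 0.1 N HCl at three time points; substrate and product separated by TLC; Ki from Dixon plot.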
# [4] = test system: mice with CCI neuropathic pain; experiment: Chronic constriction injury (CCI) of the sciatic nerve: mechanical (von Frey) and cold (acetone) allodynia; assay type: in vivo, mouse (C57BL/6); details: 50 mg/kg p.o.
# Procedure: Surgery was performed as follows. Briefly, the right hind leg of male C57BL/6 mice was shaved and swabbed with betadine solution and ethanol. Posterior to the femur, an incision was made and the sciatic nerve was visualized and isolated, following muscle separation. The nerve was ligated twice with 5-0 (1.0 metric) black silk braided suture (Surgical Specialties Corporation, Reading, Pa.). The surrounding muscle and skin were then sutured with 6-0 nylon. Mice were recovered in a heated cage and observed for approximately 2 h before being returned to the vivarium.
# Allodynia was initially tested 10 days after surgery. Male C57BL/6 mice were habituated to the test apparatus for 2 h on the 2 days prior to testing. On the test day, the mice were brought into the test room, weighed, and allowed to acclimate for at least 1 h before the start of the experiment. […] Mechanical (von Frey) and cold (acetone-induced) allodynia were tested at 1, 3, 6, and 9 h post drug administration. Testing was carried out by a separate observer who was blinded to treatment conditions. Mechanical allodynia was assessed with von Frey filaments (North Coast Medical, Morgan Hill, Calif.), using the “up-down” method. Each hind paw was stimulated 5 times per filament (0.16-6.0 g), starting with the 0.6 g filament and increasing weight. Paw clutching or lifting, in response to three or more stimulations, was coded as a positive response. Once a positive response was detected, sequentially lighter-weight filaments were used to assess paw withdrawal threshold. Approximately 30 min after completing the von Frey test, cold allodynia was tested by propelling 10 μL of acetone (Fisher Bioscience) via air burst, from a 200 μL pipette (Rainin Instruments, Oakland, Calif.) onto the plantar surface of each hind paw. Total time lifting or clutching each paw was recorded, with a maximum time of 20 s.
# Data Analyses: Behavioral data were analyzed using a two-way mixed factorial analysis of variance (ANOVA) for each paw, with drug treatment as the between subjects measure, and time as the within subjects measure. Follow-up comparisons were made using the Bonferroni test. All animals were included in the analyses. Differences between groups were considered statistically significant at p<0.05.
# [5] = test system: endogenous levels of FAAH substrates AEA, PEA, OEA and of 2-AG, AA; experiment: In vivo pharmacodynamic studies: brain and liver lipid levels after inhibitor treatment (LC-MS); design: species or system mouse (C57BL/6J)
# Procedure: This includes monitoring the effects of the inhibitors on the endogenous levels of the FAAH substrates anandamide (AEA, N-arachidonoyl ethanolamine), N-oleoyl ethanolamine (OEA), and N-palmitoyl ethanolamine (PEA), as well as the key lipids 2-arachidonoylglycerol (2-AG) and arachidonic acid (AA) that are not endogenous substrates for FAAH.
# Inhibitors were prepared as a saline-emulphor emulsion for intraperitoneal (i.p.) administration by vortexing, sonicating, and gently heating neat compound directly into an 18:1:1 v/v/v solution of saline:ethanol:emulphor, or as a homogeneous PEG solution for oral administration (p.o.) by vortexing, sonicating, and gently heating neat compound directly into PEG300 (Fluka). Male C57BL/6J mice (<6 months old, 20-28 g) were administered inhibitors in saline-emulphor emulsion or an 18:1:1 v/v/v saline:emulphor:ethanol vehicle i.p. at a volume of 10 μL/g weight, or alternatively inhibitors in PEG300 or a PEG300 vehicle p.o. at a volume of 4 μL/g weight. After the indicated amount of time, mice were anesthetized with isofluorane and killed by decapitation. Total brains (˜400 mg) and a portion of the liver (˜100 mg) were removed and flash frozen in liquid N2.
# Tissue was weighed and subsequently Dounce homogenized in 2:1:1 v/v/v CHCl3:MeOH:Tris pH 8.0 (8 mL) containing standards for lipids (50 pmol d4-PEA, 2 pmol d4-AEA, 0.5 nmol ds-2-AG, and 10 nmol pentadecanoic acid). The mixture was vortexed and then centrifuged (1,400×g, 10 min). The organic layer was removed, dried under a stream of N2, resolubilized in 2:1 v/v CHCl3:MeOH (120 μL), and 10 μL of this resolubilized lipid was injected onto an Agilent G6410B QQQ instrument. […] Mobile phase A was composed of a 95:5 v/v H2O:MeOH, and mobile phase B was composed of a 65:35:5 v/v/v i-PrOH:MeOH:H2O. 0.1% Formic acid or 0.1% ammonium hydroxide was included to assist in ion formation in positive and negative ionization mode, respectively. The flow rate for each run started at 0.1 mL/min with 0% B. At 5 min, the solvent was immediately changed to 60% B with a flow rate of 0.4 mL/min and increased linearly to 100% B over 10 min. […] MS analysis was performed with an electrospray ionization (ESI) source. […] For negative polarity, the analysis was performed in MS2 scan mode from 100-1000 m/z. The capillary was set to 4 kV, the fragmentor was set to 100 V, and the delta EMV was set to 0. Lipids were quantified by measuring the area under the peak in comparison to the standards.
# [6] = test system: catalepsy, hypothermia, hypomotility (THC-like effects); experiment: Cannabimimetic side effects after oral administration; assay type: in vivo; details: oral administration 50 mg/kg
# [7] = test system: mice, acute thermal pain (tail flick at 52° C.); experiment: Mouse tail flick assay (52° C. warm water), acute thermal pain; assay type: in vivo, mouse (CD-1); details: i.v. administration
# Procedure: Concurrent with these studies, two prototypical inhibitors 12 and 14 were examined for antinociceptive activity in a preclinical model of acute thermal pain (tail flick at 52° C.) in mice alongside 2 and morphine (i.v. administration).
# Male CD-1 (25-35 g, Charles River) mice were housed in groups of five in Plexiglas chambers with food and water available ad libitum. All animals were maintained on a 12 h light/dark cycle (lights on at 7:00 AM) in a temperature- and humidity-controlled animal colony. All tail-flick experiments were performed under an approved University of New England animal protocol in accordance with institutional guidelines and in accordance with the Guide for the Care and Use of Laboratory Animals as adopted and promulgated by the National Institutes of Health. Efficacy of the test compound was assessed using the 52° C. warm water tail-flick test. The latency to the first sign of a rapid tail-flick was taken as the behavioral endpoint. Each mouse was first tested for baseline latency by immersing its tail in the water and recording the time to response. Mice not responding within 5 sec were excluded from further testing. Mice were then administered the test compound and tested for antinociception at various time points afterwards. Antinociception was calculated by the following formula: % Antinociception=100×(test latency−control latency)/(10−control latency). A maximum score was assigned (100%) to animals not responding within 10 sec to avoid tissue damage.
# [8] = 50 mg/kg p.o., time course up to 9 h
# [9] = Table 6, 30 mg/kg i.p., 1 h, single mouse
# [10] = Table 7, i.p. (30 mg/kg), 3 mice per group
# [11] = Table 7, oral (50 mg/kg), 3 mice per group
# [12] = Table 6, 30 mg/kg i.p., 1 h, single mouse, vs vehicle
# [13] = Table 7, i.p. (30 mg/kg), 3 mice per group, vs vehicle
# [14] = Table 7, oral (50 mg/kg), 3 mice per group, vs vehicle
SMILES,half-life [1] [min],half-life [2] [min],Ki (human FAAH (hFAAH)) [µM],reduction in activity against the human enzyme versus rat FAAH (human FAAH (hFAAH)),Ki [3] [µM],"Brain 2-AG [5, 9] [pmol/g]","Brain AA [5, 9] [pmol/g]","Brain AEA [5, 9] [pmol/g]","Brain PEA [5, 9] [pmol/g]","Liver 2-AG [5, 9] [pmol/g]","Liver AEA [5, 9] [pmol/g]","Liver PEA [5, 9] [pmol/g]","Brain 2-AG [5, 10] [pmol/g]","Brain AEA [5, 10] [pmol/g]","Brain PEA [5, 10] [pmol/g]","Brain 2-AG [5, 11] [pmol/g]","Brain AEA [5, 11] [pmol/g]","Brain PEA [5, 11] [pmol/g]","Brain AEA (fold increase) [5, 12] [fold increase]","Brain PEA (fold increase) [5, 12] [fold increase]",also measured
"O=C(c1ncc(-c2ccccn2)o1)C1CCc2cc(OCc3ccccc3)ccc2C1 (stereo not shown) [Compound 18, (6-(Benzyloxy)-1,2,3,4-tetrahydronaphthalen-2-yl)(5-(pyridin-2-yl)oxazol-2-yl)methanone]",12 to 15,12 to 15,–,–,–,–,–,–,–,–,–,–,–,–,–,–,–,–,–,–,–
"O=C(c1ncc(-c2ccccn2)o1)C1CCc2cc(Oc3ccccc3)ccc2C1 (stereo not shown) [Compound 12, (6-Phenoxy-1,2,3,4-tetrahydronaphthalen-2-yl)(5-(pyridin-2-yl)oxazol-2-yl)methanone]",–,–,0.0058,no significant distinction,0.0044,13,170,42,785,0.25,12,472,7.0,28.6,599,11.5,43.2,772,–,–,"mode of inhibition (Lineweaver-Burk analysis) [3]: reversible, competitive inhibitor; also recorded: competitive, reversible inhibition; duration of effect on cold allodynia [4]: > 9 h; duration of effect on mechanical allodynia [4]: > 6 h; mechanical or cold allodynia in control (contralateral) paws [4]: no effect; duration of attenuation of neuropathic pain ([4]; FIG. 9 legend): up to 9 hours; duration of elevation of brain N-acylethanolamines (AEA, PEA, OEA) [5, 8]: maintained over the 9 h time course; time of peak brain levels of anandamide [5, 8]: 1.5 to 3 h; increases in brain levels of N-palmitoyl ethanolamine and N-oleoyl ethanolamine ([5]; p.o. 10, 25 and 50 mg/kg, 1 h): 5.5-7.8 fold; increase in brain levels of anandamide ([5]; p.o. 25-50 mg/kg, 1 h): 12-13 fold; cannabimimetic side effects [6]: did not produce catalepsy, hypothermia, or hypomotility"
"O=C(O)c1cccc(-c2cnc(C(=O)C3CCc4cc(Oc5ccccc5)ccc4C3)o2)n1 (stereo not shown) [Compound 14, 6-(2-(6-Phenoxy-1,2,3,4-tetrahydronaphthalene-2-carbonyl)oxazol-5-yl)picolinic acid]",–,–,0.11,4 fold,0.025,14,154,12,224,0.35,10,284,8.5,9.0,321,11.2,19.8,260,1.5,2.0,"dose needed for maximal effect relative to morphine [7]: 2 fold; duration of antinociceptive effect [7]: 150 min; time of maximal antinociceptive effect [7]: 30 to 60 min; maximal antinociceptive effect (efficacy) ([7]; dose-response alongside morphine): same maximal effect (efficacy) observed with morphine; Brain 2-AG (fold increase) [5, 12]: 1.0 fold increase; Brain AA (fold increase) [5, 12]: 0.7 fold increase; Liver 2-AG (fold increase) [5, 12]: 1.1 fold increase; Liver AEA (fold increase) [5, 12]: 5 fold increase; Liver PEA (fold increase) [5, 12]: 2.1 fold increase; Brain AEA (fold increase) [5, 13]: 1.6 fold increase; Brain PEA (fold increase) [5, 13]: 4.5 fold increase; Brain AEA (fold increase) [5, 14]: 3.5 fold increase; Brain PEA (fold increase) [5, 14]: 3.7 fold increase"
"O=C(CCCCCCc1ccccc1)c1ncc(-c2ccccn2)o1 [Compound 2, reference compound]",2 to 4,2 to 4,–,no significant distinction,–,–,–,38,540,0.28,14,208,–,–,–,–,–,–,4.8,5.0,"Liver 2-AG (fold increase) [5, 12]: 0.9 fold increase; Liver AEA (fold increase) [5, 12]: 7 fold increase; Liver PEA (fold increase) [5, 12]: 1.6 fold increase; increase in brain levels of anandamide ([5]; p.o. 50 mg/kg, 1 h): 11 fold"
